In this assay the target is HIV RT (Human immunodeficiency virus type 1 group M subtype B, UniProt P04585). The experiment in a line: Enzyme kinetics studies (1/v versus 1/[dTTP]). In kind it is biochemical. Conditions: 40-3 μM dTTP, 2-0 μM compound 1, poly(rA)oligo(dT); lines cross at the Y-axis intercept. The procedure: The enzyme kinetics studies were carried out using a protocol involving a 4×5 matrix of varying substrate and inhibitor concentrations over ranges of 40-3 μM of dTTP and 2-0 μM of compound 1.
The reaction mixtures (50 μl) further contained 50 mM Tris.HCl (pH 7.8), 5 mM dithiothreitol, […], 500 μM EDTA, 150 mM KCl, 5 mM MgCl2, 0.15 mM of the template/primer poly(rA)oligo(dT) and 0.06% Triton X-100. The reaction mixtures were incubated at 37° C. for 15 min, at which time 100 μl of calf thymus DNA ([…]), 2 ml of Na4P207 (0.1 M in 1 M HCl), and 2 ml of trichloroacetic acid (10% v/v) were added. The solutions were kept on ice for 30 min, after which the acid-insoluble material was washed and analyzed for radioactivity. When the reciprocal of the reaction velocity (1/v) is plotted against the reciprocal of the substrate concentration (1/[dTTP]) in the presence of different concentrations of compound 1, the graph (See FIG. 1) is obtained.
Since all the lines cross at the intercept with the Y-axis it is clear that this compound has a competitive mode of HIV RT inhibition.

SMILES strings stand for the structures.

Turning to `Cn1c2ccccc2c2c1cc(C#N)c(=O)n2-c1ccc([N+](=O)[O-])cc1` [Compound 1], the “mode of HIV RT inhibition” value was “competitive”.

For the origin of these results see patent publication US20080213810A1, “Screening Method for Hiv Rt Inhibitors” (priority 2005, published 2008).
